Results reported in PMC10967270, “Intrapulmonary and Systemic Pharmacokinetics of Colistin Following Nebulization of Low-Dose Colistimethate Sodium in Patients with Ventilator-Associated Pneumonia Caused by Carbapenem-Resistant Acinetobacter baumannii” (Antibiotics, 2024).
Positions of bridges follow the written chain, without caps; N, C: chain ends. Non-standard residues stand in square brackets, D forms with d. Residues, ends and D or L forms follow the SMILES beside them. *: point of attachment. X1 = CC[C@H](C)CCCCC(=O)*; Dab = NCC[C@H](N)C(=O)O

Assays:
[1] = Colistin concentration in plasma after CMS nebulization; assay type: in vivo; conditions: human, inhaled or intranasal, 20 patients
Protocol: Patients were treated with CMS (Xellia Pharmaceuticals ApS, Copenhagen, Denmark) at a total of 3.75 MIU (equivalent to 300 mg of CMS or 112.5 mg of CBA) administered four times a day at 6 h intervals. CMS was dissolved in 5 mL of normal saline and administered over 30 min through a jet nebulizer (Sileo 54, Macjin Medical, Seoul, Republic of Korea) connected to the ventilator circuit. Bronchoalveolar lavage fluid (BALF) was obtained by instilling 20 mL of normal saline into the right middle lobe or left lingular segmental bronchus using a bronchoscope, followed by immediate aspiration and collection into a syringe. Samples were collected immediately before the nebulization treatment and at 1, 3, and 5 h after the start of the treatment. Blood samples were collected before the nebulization treatment and at 1, 2, 3, and 5 h thereafter. Both BALF and blood samples were centrifuged at 3000× g for 10 min within 1 h of collection and the supernatant was isolated. Samples were then stored in a refrigerator at a temperature below −70 °C.
A validated liquid chromatography–tandem mass spectrometry assay was used to determine colistin concentrations in BALF and plasma samples. The HPLC equipment consisted of an Agilent 1200 series modular system and an Atlantis C18 column (Company, Waters, Milford, MA, USA) (2.1 mm × 150 mm, 3.0 μm). Mobile phases A and B were water and acetonitrile, respectively. Both phases contained 0.1% formic acid. A gradient elution program was started at 10% B, increased to 35% for 1 min, maintained at this composition for 3.8 min, and returned to the initial composition for 5 min to re-equilibrate the column. Mass spectrometry (MS) was performed using a triple-quadruple mass spectrometer (SCIEX QTRAP5500, Applied Biosystems, Foster City, CA, USA) with an electrospray ionization (ESI) interface. The ESI source was set to positive ionization mode. The parent to product transition (m/z) was 578.483→101.071 for colistin A, 585.453→101.071 for colistin B, and 602.527→101.000 for polymyxin B. Data acquisition and processing were performed using the Analyst software (version 1.7.1; Applied Biosystems, Foster City, CA, USA). Stock solutions of colistin and IS were prepared in deionized water at concentrations of 10 mg/mL, and both were stored at −20 °C. Working solutions of colistin were prepared in deionized water (dilutions of 2, 5, 10, 50, 100, 500, and 1000 μg/mL). Calibration standards were prepared by spiking 247.5 μL of drug-free plasma with 2.5 μL of colistin working solution. Low (colistin A; 11.16 ng/mL, colistin B; 48.84 ng/mL), moderate (colistin A; 186 ng/mL, colistin B; 814 ng/mL), and high (colistin A; 1488 ng/mL, colistin B; 6512 ng/mL) concentrations of QC samples were prepared. Sample pretreatment involved a solid phase extraction. A 250 μL aliquot of plasma was pipetted into a 1.5 mL Eppendorf tube, to which 10 μL of IS (10 μg/mL, polymyxin B) and 740 μL of deionized water were added. This mixture was loaded into a cartridge that had been preconditioned twice with 1 mL of methanol and 1 mL of deionized water. After the plasma mixture was loaded, the cartridge was washed with 1 mL of deionized water. One milliliter of methanol including 0.1% formic acid was used for extraction. Extraction liquid was evaporated by vacuum concentrator (Speedvac, Thermo Fisher Scientific Inc., Waltham, MA, USA) at 45 °C for 2.5 h. Samples were reconstituted in 100 μL deionized water containing 0.1% formic acid. […]

[2] = system: A. baumannii; conditions: murine lung infection model; cited from earlier work
[3] = system: A. baumannii; conditions: among 2879 isolates, EUCAST; cited from earlier work

## CC[C@H](C)CCCCC(=O)N[C@@H](CCN)C(=O)N[C@H](C(=O)N[C@@H](CCN)C(=O)N[C@H]1CCNC(=O)[C@H]([C@@H](C)O)NC(=O)[C@H](CCN)NC(=O)[C@H](CCN)NC(=O)[C@H](CC(C)C)NC(=O)[C@@H](CC(C)C)NC(=O)[C@H](CCN)NC1=O)[C@@H](C)O [colistin] (X1-[Dab]T[Dab][Dab][Dab][dL]L[Dab][Dab]T; lactam 4-C)
[1]; 1 h after start (time by position in Figure 1c), CMS 0.9375 MIU nebulized over 30 min, LC-MS/MS, read-out: Median colistin concentration in plasma
  level at 1 h: 19.2 ng/mL
[1]; 2 h after start (time by position in Figure 1c), CMS 0.9375 MIU nebulized over 30 min, LC-MS/MS, read-out: Median colistin concentration in plasma
  level at 2 h: 29.8 ng/mL
[1]; 3 h after start (time by position in Figure 1c), CMS 0.9375 MIU nebulized over 30 min, LC-MS/MS, read-out: Median colistin concentration in plasma
  level at 3 h: 37.7 ng/mL
[1]; 5 h after start (time by position in Figure 1c), CMS 0.9375 MIU nebulized over 30 min, LC-MS/MS, read-out: Median colistin concentration in plasma
  level at 5 h: 32.6 ng/mL
[1]; nebulized CMS 0.9375 MIU over 30 min, monitored over 5 h, read-out: Observed peak colistin concentration in plasma, median (IQR)
  Cmax: 43.5 ng/mL
[2]
  fAUC/MIC target values for a 2 log10 kill: 22.5–95.0 mg/L·h
[3]
  Isolates with a colistin MIC of 1 mg/L, number (%): 1451 (50.4%)
  Isolates with a colistin MIC of 2 mg/L, number (%): 539 (18.7%)
  Isolates with a colistin MIC of 4 mg/L, number (%): 54 (1.88%)
